According to publication PMC12261228 (ACS Pharmacology & Translational Science, 2025):
Read-outs that look alike come from different tables or passages of the source.

Legend:
CCRF-CEM lymphoblasts = test: FACS analysis of cell cycle, apoptosis, mitosis and polyploidy; conditions: for Mitosis: phospho-Histone (Ser10); for Apoptosis: sub-G0/G1 DNA content, % of positive cells
HUVEC = test: MTS cytotoxicity assay, 72 h; format: cell-based; conditions: Homo sapiens, 3-day incubation, mean ± SD
CCRF-CEM = test: MTS cytotoxicity assay, 72 h; format: cell-based; conditions: Homo sapiens, CCRF-CEM, 72 h, read-out: IC50 CCRF-CEM, MTS assay, 3-day incubation, mean ± SD of 3 experiments
BJ = test: MTS cytotoxicity assay, 72 h; format: cell-based; conditions: Homo sapiens, read-out: IC50 BJ
MRC-5 = test: MTS cytotoxicity assay, 72 h; format: cell-based; conditions: Homo sapiens, MRC5, 72 h, read-out: IC50 MRC-5
[1] = tested on: microtubules in U2OS cells; test: Immunofluorescence of microtubule organization; format: cell-based, human; conditions: 10 μM, 15 h
Method: DMSO at appropriate dilution served as control.
Immunofluorescence microscopy on formaldehyde-fixed, Triton X-100 extracted cells (F/Tx) was performed as previously described. Extraction and fixation steps were carried out in a microtubule stabilizing buffer consisting of 0.1 M KMes, 2 mM EGTA, 2 mM MgCl2, 4% polyethylene glycol 6000, pH 6.9. Cells were fixed for 30 min in 3% formaldehyde before extraction for 4 min with 0.5% Triton X-100 at 37 °C. Mouse monoclonal antibody TU-01 (IgG1) directed to α-tubulin , in the form of hybridoma spent culture medium was diluted 1:10. The DyLight 549-conjugated antimouse antibody (Jackson Immunoresearch Laboratories, West Grove, PA, USA) was diluted 1:500. Samples were mounted in MOWIOL 4–88 (Calbiochem, San Diego, CA, USA) supplemented with 4,6-diamidino-2-phenylindole (DAPI; Sigma-Aldrich, St. Louis, MO, USA) and examined with an Olympus AX-70 Provis microscope (Olympus, Hamburg, Germany) equipped with a 60×/1.0 water objective.

K562-TAX = test: MTS cytotoxicity assay, 72 h; format: cell-based; conditions: read-out: IC50 K562-TAX
panel of cell lines [2] = tested on: panel of cell lines
U2OS = test: MTS cytotoxicity assay, 72 h; format: cell-based, human
K562 = test: MTS cytotoxicity assay, 72 h; format: cell-based; conditions: Homo sapiens, K562, 72 h, read-out: IC50 K562
HCT116 = test: MTS cytotoxicity assay, 72 h; format: cell-based; conditions: Homo sapiens, HCT-116, 72 h, read-out: IC50 HCT116
HCT116p53–/– = test: MTS cytotoxicity assay, 72 h; format: cell-based; conditions: read-out: IC50 HCT116p53–/–
CEM-DNR = test: MTS cytotoxicity assay, 72 h; format: cell-based; conditions: Homo sapiens, read-out: IC50 CEM-DNR
panel of cell lines [3] = test: cells; conditions: read-out: IC50 values, cancer cell lines
[4] = Homo sapiens, U2OS, 72 h, read-out: IC50 U2OS, MTS assay, 3-day incubation, mean ± SD

SMILES | G0/G1 (CCRF-CEM lymphoblasts; 1×IC50, 24 h) [%] | G2/M (CCRF-CEM lymphoblasts; 1×IC50, 24 h) [%] | Polyploid cells (CCRF-CEM lymphoblasts; 1×IC50, 24 h) [%] | S (CCRF-CEM lymphoblasts; 1×IC50, 24 h) [%] | Mitosis (CCRF-CEM lymphoblasts; 1×IC50, 24 h) [%] | Apoptosis (CCRF-CEM lymphoblasts; 1×IC50, 24 h) [%] | G0/G1 (CCRF-CEM lymphoblasts; 5×IC50, 24 h) [%] | Polyploid cells (CCRF-CEM lymphoblasts; 5×IC50, 24 h) [%] | S (CCRF-CEM lymphoblasts; 5×IC50, 24 h) [%] | Mitosis (CCRF-CEM lymphoblasts; 5×IC50, 24 h) [%] | Apoptosis (CCRF-CEM lymphoblasts; 5×IC50, 24 h) [%] | IC50 (HUVEC) [µM] | IC50 (CCRF-CEM) [nM] | IC50 (BJ) [µM] | IC50 (MRC-5) [µM] | IC50 (K562-TAX) [µM] | RI (resistance index) (panel of cell lines [2]) | SI (selectivity index) (panel of cell lines [2]) | IC50 (U2OS; [4]) [µM] | IC50 (K562) [nM] | also measured
COc1cc2c(c(OC)c1OC)-c1ccc(OC)c(=O)cc1[C@@H](n1cc(CCCCCCCCC3=C4C(C)=CC(C)=[N+]4[B-](F)(F)n4c(C)cc(C)c43)nn1)CC2 [CB5] | 11.02 | 85.47 | 24.32 | 3.51 | 42.49 | 9.64 | 5.27 | 26.07 | 0.77 | 60.70 | 10.96 | 0.45 ± 0.012 | 420 ± 14 | > 50 | > 50 | 0.9 ± 0.026 | 2.49 | >74.18 | < 2 | 500 ± 122 | effect on microtubules (in words) [1]: completely disrupted microtubules; IC50 (U2OS; read-out: IC50 U2OS, MTS assay, 3-day incubation, mean ± SD): 1.04 ± 0.141 µM; IC50 (HCT116): 0.64 ± 0.065 µM; IC50 (HCT116p53–/–): 0.77 ± 0.063 µM; IC50 (CEM-DNR): 1.39 ± 0.139 µM
COc1cc2c(c(OC)c1OC)-c1ccc(N(C)C(=O)CCC3=C4C(C)=CC(C)=[N+]4[B-](F)(F)n4c(C)cc(C)c43)c(=O)cc1[C@@H](NC(C)=O)CC2 [CB12] | 32.27 | 26.62 | 18.91 | 41.12 | 9.86 | 4.12 | 21.05 | 23.39 | 25.39 | 23.11 | 10.47 | 8.24 ± 0.77 | 5540 ± 475 | > 50 | > 50 | 8.07 ± 0.706 | 4.50 | >7.07 | 9.12 ± 0.174 | 4250 ± 890 | G2/M (CCRF-CEM lymphoblasts; 5×IC50, 24 h): 53.56%; IC50 (panel of cell lines [3]): 2.5 to 9 µM; IC50 (HCT116): 8.09 ± 0.268 µM; IC50 (HCT116p53–/–): 8.35 ± 0.549 µM; IC50 (CEM-DNR): 36 ± 2.04 µM
COc1cc2c(c(OC)c1OC)-c1ccc(N(C)CCCCC3=C4C(C)=CC(C)=[N+]4[B-](F)(F)n4c(C)cc(C)c43)c(=O)cc1[C@@H](NC(C)=O)CC2 [CB11] | 35.98 | 30.38 | 13.64 | 33.64 | 4.83 | 5.26 | 10.48 | 24.88 | 10.23 | 59.86 | 16.42 | 5.52 ± 0.29 | 2500 ± 567 | > 50 | > 50 | 5.18 ± 0.198 | 2.45 | >12.87 | 4.62 ± 1.23 | 1850 ± 204 | G2/M (CCRF-CEM lymphoblasts; 5×IC50, 24 h): 79.29%; IC50 (panel of cell lines [3]): 2.5 to 9 µM; IC50 (HCT116): 4.93 ± 0.729 µM; IC50 (HCT116p53–/–): 5.52 ± 0.762 µM; IC50 (CEM-DNR): 5.49 ± 0.935 µM
